Data published in patent US9265253B2, “Use of macrocyclic picolinamides as fungicides” (DOW AGROSCIENCES LLC, priority 2013, dated 2016).
Where two headings read alike, the source gives them in different places.

Legend:
[1] = test system: Puccinia triticina; Synonym: Puccinia recondite f. Sp. Tritici; assay: Wheat Brown Rust (PUCCRT) disease control; format: in vivo; settings: Puccinia triticina, topical; for pest or weed control at 100 ppm: rate 100 ppm
Method in brief: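 Brown rust on first-leaf Yuma wheat: spore inoculation before or after spray application (acetone/Triton X-100 solution, or EC with Trycol in track spray), overnight 100% RH at 22 °C, disease developed at 24 °C. Severity scored 0–100% and converted to percent control against untreated.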

[2] = test system: Mycosphaerella graminicola; Anamorph: Septoria tritici; assay: Leaf Blotch of Wheat (SEPTTR) disease control; format: in vivo; settings: Zymoseptoria tritici; for pest or weed control at 100 ppm: rate 100 ppm; for pest or weed control at 121.5 g/ha: rate 121.5 g/H
Method in brief: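 Yuma wheat, 1st leaf stage; spray to run-off, acetone + 9 vol water/110 ppm Triton X-100; S. tritici spores pre- or post-treatment; dew chamber 100% RH, then greenhouse 20° C. Read: % severity vs untreated → % control.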

[3] = 24 h, 1 Day Protectant, read-out: PUCCRT 1 DP disease control
[4] = 72 h, 3 Day Curative, read-out: PUCCRT 3 DC disease control
[5] = 24 h, 1 Day Protectant, read-out: SEPTTR 1 DP disease control
[6] = 72 h, 3 Day Curative, read-out: SEPTTR 3 DC disease control

With `COc1ccnc(C(=O)N[C@H]2CCC[C@H](Cc3ccc(F)cc3F)[C@@H](OCCCc3ccccc3)[C@H](C)OC2=O)c1OCOC(C)=O` [Compound F141] as the compound, how does the melting point read?
The melting point was 40 to 45 °C.

What about the pest or weed control at 100 ppm [1, 3] of the same compound?
Its pest or weed control at 100 ppm is 80 to 100%.

What about the pest or weed control at 121.5 g/ha ([1]; 24 h, 1 Day Protectant, rate 121.5 g/H, read-out: PUCCRT 1 DP disease control) of the same compound?
Its pest or weed control at 121.5 g/ha is 80 to 100%.

What about the pest or weed control at 100 ppm [1, 4] of the same compound?
Its pest or weed control at 100 ppm is 0 to 80%.

What about the pest or weed control at 100 ppm [2, 5] of the same compound?
The pest or weed control at 100 ppm was 80 to 100%.

What about the pest or weed control at 121.5 g/ha [2, 5] of the same compound?
Its pest or weed control at 121.5 g/ha is 80 to 100%.

And the pest or weed control at 100 ppm [2, 6]?
The pest or weed control at 100 ppm was 80 to 100%.

And the pest or weed control at 121.5 g/ha [2, 6]?
The pest or weed control at 121.5 g/ha was 0 to 80%.

With `COc1ccnc(C(=O)N[C@H]2CCC[C@H](Cc3ccc(C)cc3)[C@@H](Oc3ccccc3)[C@H](C)OC2=O)c1OCOC(C)=O` [Compound F134] as the compound, how does the melting point read?
The melting point was 71 to 75 °C.

What about the pest or weed control at 100 ppm [1, 3] of the same compound?
Its pest or weed control at 100 ppm is 80 to 100%.

What about the pest or weed control at 100 ppm [1, 4] of the same compound?
The pest or weed control at 100 ppm was 80 to 100%.

What about the pest or weed control at 100 ppm [2, 5] of the same compound?
The pest or weed control at 100 ppm was 80 to 100%.

And the pest or weed control at 100 ppm [2, 6]?
Its pest or weed control at 100 ppm is 80 to 100%.

Which melting point does the source give for `COc1ccnc(C(=O)N[C@H]2CCC[C@H](Cc3ccc(C)cc3)[C@@H](OCC(C)C)[C@H](C)OC2=O)c1O` [Compound F41] here?
The melting point was 129 to 131 °C.

What about the pest or weed control at 100 ppm [1, 3] of the same compound?
Its pest or weed control at 100 ppm is 80 to 100%.

What about the pest or weed control at 100 ppm [1, 4] of the same compound?
The pest or weed control at 100 ppm was 0 to 80%.

What about the pest or weed control at 100 ppm [2, 5] of the same compound?
Its pest or weed control at 100 ppm is 80 to 100%.

And the pest or weed control at 100 ppm [2, 6]?
Its pest or weed control at 100 ppm is 80 to 100%.

Which melting point does the source give for `COc1ccnc(C(=O)N[C@H]2CCC[C@H](Cc3ccc(F)cc3F)[C@@H](OCc3ccccc3)[C@H](C)OC2=O)c1O` [Compound F52] here?
The melting point was 68 to 72 °C.

And the pest or weed control at 100 ppm [1, 3]?
Its pest or weed control at 100 ppm is 80 to 100%.

And the pest or weed control at 100 ppm [1, 4]?
The pest or weed control at 100 ppm was 80 to 100%.

And the pest or weed control at 100 ppm [2, 5]?
The pest or weed control at 100 ppm was 80 to 100%.

What about the pest or weed control at 100 ppm [2, 6] of the same compound?
Its pest or weed control at 100 ppm is 80 to 100%.

For `COc1ccnc(C(=O)N[C@H]2CCC[C@H](Cc3ccc(C)cc3)[C@@H](Oc3ccccc3)[C@H](C)OC2=O)c1O` [Compound F49, 3-hydroxy-4-methoxy-N-((3S,7R,8R,9S)-9-methyl-7-(4-methylbenzyl)-2-oxo-8-phenoxyoxonan-3-yl)picolinamide], which melting point is on record?
The melting point was 62 to 66 °C.

What about the pest or weed control at 100 ppm [1, 3] of the same compound?
Its pest or weed control at 100 ppm is 80 to 100%.

And the pest or weed control at 100 ppm [1, 4]?
The pest or weed control at 100 ppm was 0 to 80%.

What about the pest or weed control at 100 ppm [2, 5] of the same compound?
The pest or weed control at 100 ppm was 80 to 100%.

What about the pest or weed control at 100 ppm [2, 6] of the same compound?
Its pest or weed control at 100 ppm is 80 to 100%.

For `Cc1ccc(C[C@H]2CCC[C@H](N)C(=O)O[C@@H](C)[C@@H]2Oc2ccccc2)cc1.Cl`, which melting point is on record?
Its melting point is 200 to 210 °C (dec.).

For `COCN(C(=O)OC(C)(C)C)[C@H]1CCC[C@H](Cc2ccc(F)cc2F)[C@@H](OC(=O)c2ccco2)[C@H](C)OC1=O` [Compound F260], which melting point is on record?
Its melting point is 45 to 48 °C.

Which melting point does the source give for `COCN(C(=O)OC(C)(C)C)[C@H]1CCC[C@H](Cc2ccc(F)cc2F)[C@@H](OCc2ccccc2)[C@H](C)OC1=O` [Compound F254] here?
The melting point was 108 to 115 °C.

Which melting point does the source give for `Cc1ccc(C[C@H]2CCC[C@H](NC(=O)OC(C)(C)C)C(=O)O[C@@H](C)[C@@H]2OCC2CC2)cc1` [Compound F236] here?
Its melting point is 86 to 89 °C.

Which melting point does the source give for `CCCO[C@@H]1[C@@H](Cc2ccc(F)cc2)CCC[C@H](N)C(=O)O[C@H]1C.Cl` here?
Its melting point is 215 to 217 °C.

Which melting point does the source give for `C[C@@H]1OC(=O)[C@@H](NC(=O)OC(C)(C)C)CCC[C@H](C)[C@H]1Oc1ccccc1` [Compound F224] here?
Its melting point is 144 to 145 °C.

Which melting point does the source give for `Cc1ccc(C[C@H]2CCC[C@H](N(C(=O)OC(C)(C)C)C(=O)OC(C)(C)C)C(=O)O[C@@H](C)[C@@H]2OCc2ccccc2)cc1` [Compound F230, tert-butyl N-[(3S,7R,8R,9S)-8-benzyloxy-9-methyl-2-oxo-7-(p-tolylmethyl)oxonan-3-yl]-N-tert-butoxycarbonyl-carbamate] here?
The melting point was 164 to 166 °C.

Which melting point does the source give for `C[C@@H]1OC(=O)[C@@H](N)CCC[C@H](Cc2ccc(F)cc2F)[C@H]1OCCCc1ccccc1.Cl` here?
Its melting point is 190 to 195 °C (dec.).

For `Cc1ccc(C[C@H]2CCC[C@H](NC(=O)OC(C)(C)C)C(=O)O[C@@H](C)[C@@H]2OCc2ccccc2)cc1` [Compound F229], which melting point is on record?
Its melting point is 108 to 110 °C.

For `Cc1ccc(C[C@H]2CCC[C@H](N(C(=O)OC(C)(C)C)C(=O)OC(C)(C)C)C(=O)O[C@@H](C)[C@@H]2OCC(C)C)cc1` [Compound F232], which melting point is on record?
Its melting point is 110 to 114 °C.

Which melting point does the source give for `Cc1ccc(C[C@H]2CCC[C@H](N)C(=O)O[C@@H](C)[C@@H]2OCC2CC2)cc1.Cl` here?
The melting point was 210 °C (dec.).
